# Source: patent publication US20150064221A1, “COMPOUNDS HAVING IMMUNOMUDULATOR ACTIVITY” (priority 2012, published 2015)
# Assays:
# [1] = tested on: Peritoneal macrophages (PM); assay: In vitro cytokine synthesis by peritoneal macrophages; format: cell-based, mice
# Source text: Peritoneal macrophages (PM) and splenic mononuclear cells (SMNC) were isolated from normal mice, cultured in nutrient medium and stimulated with LPS and/or ConA in the absence or presence of VGX-1027. […] VGX-1027 had no effect on MIF expression in either cell type, on proliferation of SMNC, and on IL-10 and Interferon (IFN) γ production by SMNC.
# PBMCs = assay: Transcriptional profile analysis (microarray) of LPS-stimulated PBMCs; format: cell-based, human; set-up: mean/difference of means: scale not given here; settings: for mean/difference of means: VGX-treated vs LPS stimulated group
# Method: Transcriptional profile analysis: PBMCs from three individual healthy donors, obtained from the University of Pennsylvania School of Medicine, Immunology Clinical Core. Cells (5×10̂6) were treated with either LPS (5 μg/ml), LPS (5 μg/ml)+VGX-1027 (10 uM) or PBS for 48 hours and subsequently, RNA was extracted using the RNeasy kit (Qiagen) following manufacturer's instructions.
# RNA was hybridized to the Human Gene 1.0 ST array (Affymetrix). Microarray data were analyzed using the web-based utility Expression Profiler (http://www.ebi.ac.uk/expressionprofiler/). Data normalization was achieved by performing logarithmic transformation of all intensities followed by gene mean-centering. Multiple array probes were collapsed by averaging the intensities. Principal component analysis (PCA) was conducted on all genes to assign the general variability in the data to a reduced set of variables. Gene expression differences were assessed by means of Student's t test, and genes with a p<0.01 were considered differentially expressed. Selected genes were subjected to K-means clustering, using Euclidean distance as correlation measurement, and gene ontology (GO) analysis was performed using the Database for Annotation, Visualization and Integrated Discovery (DAVID) tool. Hierarchical clustering of selected genes was performed using Euclidean distance measurements as similarity comparison.
# [2] = tested on: 30 primary molecular targets; assay: Radioligand binding assay (MDS Pharma HitProfiling Screen); settings: 30 targets, concentrations up to 10 μM; significant = ≧50% inhibition or stimulation
# Method: VGX-1027 was negative in a radioligand binding assay (MDS Pharma HitProfiling Screen) that tested 30 primary molecular targets at concentrations up to 10 μM. No significant response (≧50% inhibition or stimulation for Biochemical assays) were noted.
# [3] = tested on: Peritoneal macrophages (PM); assay: Ex vivo cytokine synthesis by PM from treated mice; format: cell-based
# Method: These experiments were carried out to explore if intraperitoneal (i.p.) or oral administration (p.o.) in mice with VGX-1027 could influence the proliferative response of SMNC and the production of IL-1β, IL-10, TNF-α, IFN-γ and MIF from isolated PM and SMNC. PM and SMNC isolated from mice treated in vivo with VGX-1027 for 7 consecutive days intraperitoneally (0.5 mg/mouse), or orally (2.5 mg/mouse), or isolated from control animals that received VGX-1027 vehicle (Na2HPO4/H2O), or were without any treatment. 24 h after the last VGX-1027 treatment, PM and SMNC were collected for further in vitro stimulation and analysis.
smiles,measurement,setting,value
"O=C(O)CC1CC(c2ccccc2)=NO1 (stereo not drawn) [VGX-1027, 3-phenyl-4,5-dihydro-5-isoxazoleacetic acid]",IL-1 β production,[1],inhibited
same,IL-10 production,[1],inhibited
same,MIF expression,[1],no effect
same,TNF-α production,[1]; LPS and/or ConA stimulated,markedly inhibited
same,genes in cluster strongly downregulated upon treatment,PBMCs; K-means clustering,525
same,genes modulated relative to LPS,"PBMCs; LPS 5 μg/ml + 10 uM, 48 hours",895
same,mean/difference of means,"PBMCs; gene 7912155, most down-regulated genes",0.111
same,mean/difference of means,"PBMCs; gene 7923965, most down-regulated genes",0.439
same,mean/difference of means,"PBMCs; gene 7945084, most down-regulated genes",0.165
same,mean/difference of means,"PBMCs; gene 7997245, most up-regulated genes",−0.0599
same,mean/difference of means,"PBMCs; gene 8007069, most down-regulated genes",0.074
same,mean/difference of means,"PBMCs; gene 8017100, most down-regulated genes",0.108
same,mean/difference of means,"PBMCs; gene 8028281, most down-regulated genes",0.0791
same,mean/difference of means,"PBMCs; gene 8043441, most up-regulated genes",−0.406
same,mean/difference of means,"PBMCs; gene 8077169, most down-regulated genes",0.153
same,mean/difference of means,"PBMCs; gene 8094946, most down-regulated genes",0.07
same,mean/difference of means,"PBMCs; gene 8102775, most down-regulated genes",0.101
same,mean/difference of means,"PBMCs; gene 8104068, most down-regulated genes",0.118
same,mean/difference of means,"PBMCs; gene 8134024, most down-regulated genes",0.0796
same,mean/difference of means,"PBMCs; gene 8135943, most down-regulated genes",0.406
same,mean/difference of means,"PBMCs; gene 8136446, most up-regulated genes",−0.146
same,mean/difference of means,"PBMCs; gene 8140035, most down-regulated genes",0.388
same,mean/difference of means,"PBMCs; gene 8150101, most up-regulated genes",−0.237
same,mean/difference of means,"PBMCs; gene 8153835, most down-regulated genes",0.0829
same,mean/difference of means,"PBMCs; gene 8160555, most down-regulated genes",0.171
same,mean/difference of means,"PBMCs; gene ADAM19, most up-regulated genes",−0.176
same,mean/difference of means,"PBMCs; gene AIM2, most up-regulated genes",−0.221
same,mean/difference of means,"PBMCs; gene ALKBH5, most down-regulated genes",0.0698
same,mean/difference of means,"PBMCs; gene APOBEC3G, most up-regulated genes",−0.239
same,mean/difference of means,"PBMCs; gene ATXN10, most up-regulated genes",−0.131
same,mean/difference of means,"PBMCs; gene BLNK, most up-regulated genes",−0.398
same,mean/difference of means,"PBMCs; gene BOLA3, most up-regulated genes",−0.118
same,mean/difference of means,"PBMCs; gene C1orf2, most down-regulated genes",0.106
same,mean/difference of means,"PBMCs; gene C11orf53, most down-regulated genes",0.184
same,mean/difference of means,"PBMCs; gene C20orf173, most down-regulated genes",0.14
same,mean/difference of means,"PBMCs; gene CABYR, most down-regulated genes",0.135
same,mean/difference of means,"PBMCs; gene CCKBR, most down-regulated genes",0.0588
same,mean/difference of means,"PBMCs; gene CCL8, most up-regulated genes",−1.08
same,mean/difference of means,"PBMCs; gene CD22, most up-regulated genes",−0.453
same,mean/difference of means,"PBMCs; gene CD38, most up-regulated genes",−0.468
same,mean/difference of means,"PBMCs; gene CHML, most up-regulated genes",−0.24
same,mean/difference of means,"PBMCs; gene CIZ1, most down-regulated genes",0.0416
same,mean/difference of means,"PBMCs; gene CLIC5, most up-regulated genes",−0.175
same,mean/difference of means,"PBMCs; gene CLU, most up-regulated genes",−0.218
same,mean/difference of means,"PBMCs; gene CPA3, most up-regulated genes",−0.669
same,mean/difference of means,"PBMCs; gene CYTH1, most down-regulated genes",0.0452
same,mean/difference of means,"PBMCs; gene DNAH1, most up-regulated genes",−0.134
same,mean/difference of means,"PBMCs; gene EDN2, most down-regulated genes",0.0391
same,mean/difference of means,"PBMCs; gene EGR4, most down-regulated genes",0.129
same,mean/difference of means,"PBMCs; gene EOMES, most up-regulated genes",−0.0887
same,mean/difference of means,"PBMCs; gene ETNK2, most down-regulated genes",0.278
same,mean/difference of means,"PBMCs; gene FAM108C1, most down-regulated genes",0.0544
same,mean/difference of means,"PBMCs; gene FAS, most up-regulated genes",−0.12
same,mean/difference of means,"PBMCs; gene FCRL1, most up-regulated genes",−0.301
same,mean/difference of means,"PBMCs; gene FNBP1L, most down-regulated genes",0.203
same,mean/difference of means,"PBMCs; gene FUK, most down-regulated genes",0.0866
same,mean/difference of means,"PBMCs; gene GATAD1, most down-regulated genes",0.0258
same,mean/difference of means,"PBMCs; gene GEN1, most up-regulated genes",−0.368
same,mean/difference of means,"PBMCs; gene GGTLC2, most down-regulated genes",0.179
same,mean/difference of means,"PBMCs; gene HAGH, most down-regulated genes",0.0712
same,mean/difference of means,"PBMCs; gene HISPPD2A, most down-regulated genes",0.0217
same,mean/difference of means,"PBMCs; gene HSPA12B, most down-regulated genes",0.0281
same,mean/difference of means,"PBMCs; gene KARS, most up-regulated genes",−0.126
same,mean/difference of means,"PBMCs; gene KCTD10, most up-regulated genes",−0.0613
same,mean/difference of means,"PBMCs; gene KLF3, most down-regulated genes",0.115
same,mean/difference of means,"PBMCs; gene KLF10, most up-regulated genes",−0.11
same,mean/difference of means,"PBMCs; gene KLHDC4, most up-regulated genes",−0.0727
same,mean/difference of means,"PBMCs; gene LARS2, most up-regulated genes",−0.176
same,mean/difference of means,"PBMCs; gene LCP2, most up-regulated genes",−0.0536
same,mean/difference of means,"PBMCs; gene LRRC8D, most down-regulated genes",0.139
same,mean/difference of means,"PBMCs; gene LYRM4, most up-regulated genes",−0.294
same,mean/difference of means,"PBMCs; gene MAGOH, most up-regulated genes",−0.1
same,mean/difference of means,"PBMCs; gene MOV10L1, most down-regulated genes",0.0753
same,mean/difference of means,"PBMCs; gene MRPL15, most up-regulated genes",−0.147
same,mean/difference of means,"PBMCs; gene MRPS35, most up-regulated genes",−0.164
same,mean/difference of means,"PBMCs; gene NDUFA4, most up-regulated genes",−0.0638
same,mean/difference of means,"PBMCs; gene NLN, most up-regulated genes",−0.217
same,mean/difference of means,"PBMCs; gene OAS3, most up-regulated genes",−0.134
same,mean/difference of means,"PBMCs; gene OFCC1, most down-regulated genes",0.0379
same,mean/difference of means,"PBMCs; gene PAH, most down-regulated genes",0.0906
same,mean/difference of means,"PBMCs; gene PAK1IP1, most up-regulated genes",−0.271
same,mean/difference of means,"PBMCs; gene PGDS, most up-regulated genes",−0.708
same,mean/difference of means,"PBMCs; gene RGS1, most up-regulated genes",−0.294
same,mean/difference of means,"PBMCs; gene RPE, most up-regulated genes",−0.116
same,mean/difference of means,"PBMCs; gene SERPINI1, most down-regulated genes",0.187
same,mean/difference of means,"PBMCs; gene SH3PXD2A, most down-regulated genes",0.0515
same,mean/difference of means,"PBMCs; gene SLC38A2, most down-regulated genes",0.0979
same,mean/difference of means,"PBMCs; gene SNORA24, most up-regulated genes",−0.212
same,mean/difference of means,"PBMCs; gene SNRNP70, most down-regulated genes",0.0617
same,mean/difference of means,"PBMCs; gene SNX6, most up-regulated genes",−0.0607
same,mean/difference of means,"PBMCs; gene SPAG7, most up-regulated genes",−0.149
same,mean/difference of means,"PBMCs; gene SRFBP1, most up-regulated genes",−0.124
same,mean/difference of means,"PBMCs; gene TCL1A, most up-regulated genes",−0.442
same,mean/difference of means,"PBMCs; gene TNFRSF17, most up-regulated genes",−0.295
same,mean/difference of means,"PBMCs; gene TRABD, most down-regulated genes",0.0439
same,mean/difference of means,"PBMCs; gene TSN, most up-regulated genes",−0.105
same,mean/difference of means,"PBMCs; gene TUSC3, most down-regulated genes",0.0955
same,mean/difference of means,"PBMCs; gene TXNRD1, most down-regulated genes",0.117
same,mean/difference of means,"PBMCs; gene UAP1L1, most down-regulated genes",0.0398
same,mean/difference of means,"PBMCs; gene VIPR1, most down-regulated genes",0.123
same,mean/difference of means,"PBMCs; gene WARS2, most up-regulated genes",−0.246
same,mean/difference of means,"PBMCs; gene WDR70, most up-regulated genes",−0.0908
same,mean/difference of means,"PBMCs; gene YPEL2, most down-regulated genes",0.183
same,mean/difference of means,"PBMCs; gene ZNF596, most up-regulated genes",−0.432
same,mean/difference of means,"PBMCs; gene ZNF746, most down-regulated genes",0.0386
same,mean/difference of means,"PBMCs; gene hCG_2024410, most up-regulated genes",−0.102
same,radioligand binding result,[2],negative
same,IL-10 synthesis,[3]; mice treated 7 days,impaired synthesis
same,TNF-α synthesis,[3]; mice treated 7 days,impaired synthesis
same,IL-1 β synthesis,[3]; mice treated 7 days i.p. 0.5 mg/mouse or orally 2.5 mg/mouse,impaired synthesis
same,MIF expression,[3]; mitogenic stimulation,normal pattern
